For experiment [1], the system named is HepG2. In words: Cytotoxicity against Homo sapiens (human) HepG2 cells after 24 hr by MTT assay. Type of experiment: functional, cell-based. The settings on record: HepG2, 24 h. Background: Tetrazolium assays rely on reduction of a dye to a coloured formazan, in cell work by metabolically active cells.
Experiment [2] deals with HepG2. Kind of experiment: Cytotoxicity against Homo sapiens (human) HepG2 cells assessed as cell survival at 0.001 g/l after 24 hr by MTT assay (reference value: 78.07 +/- 1.89 to 95.31 +/- 3.09%). The settings on record: HepG2, 24 h, read-out: Survival. The format is functional.
Experiment [3] has as its system HepG2. In words: Cytotoxicity against Homo sapiens (human) HepG2 cells assessed as cell survival at 0.01 g/l after 24 hr by MTT assay (reference value: 78.07 +/- 1.89 to 95.31 +/- 3.09%). Type of experiment: functional. The settings on record: HepG2, 24 h, read-out: Survival.
In experiment [4] the test system is HepG2. Kind of experiment: Cytotoxicity against Homo sapiens (human) HepG2 cells assessed as cell survival at 0.1 g/l after 24 hr by MTT assay (reference value: 78.07 +/- 1.89 to 95.31 +/- 3.09%). Type of experiment: functional. The settings on record: HepG2, 24 h, read-out: Survival.
In experiment [5] the test system is HepG2. In words: Cytotoxicity against Homo sapiens (human) HepG2 cells assessed as cell survival at 0.0001 g/l after 24 hr by MTT assay (reference value: 78.07 +/- 1.89 to 95.31 +/- 3.09%). Type of experiment: functional. The settings on record: HepG2, 24 h, read-out: Survival.

≈ marks a conversion by molar mass, not a printed value.

Experimental findings from ChEMBL document CHEMBL3046085, “Synthesis, characterization and in vitro cytotoxic properties of some new Schiff and Mannich bases in Hep G2 cells” (Med Chem Res, 2011) are described below.

What is called IC50 is the concentration that gives 50% inhibition.

For `Cc1ccccc1OCc1n[nH]c(=S)n1/N=C/c1c[nH]nc1-c1ccc(Cl)cc1`, in the experiment on HepG2 [1], the IC50 was found to be 44 µg/mL (≈ 104 µM).

The molecule `Cc1ccc(OCc2nn(CN3CCOCC3)c(=S)n2/N=C/c2c[nH]nc2-c2ccc(F)cc2)cc1` yielded an IC50 with HepG2 [1] of 34 µg/mL (≈ 67 µM).

`COc1cccc2c1C(=O)c1c(O)c3c(c(O)c1C2=O)C[C@@](O)(C(=O)CO)C[C@@H]3O[C@H]1C[C@H](N)[C@H](O)[C@H](C)O1` [DOXORUBICIN]: in the experiment with HepG2 [2], the viability at 1 µg/mL was determined as 74.2%. The viability at 10 µg/mL with HepG2 [3] turned out to be 51.2%. Also, in the experiment on HepG2 [4], the viability at 100 µg/mL is 35.9%. In the experiment with HepG2 [5], the viability at 0.1 µg/mL stood at 90%. Also, in the experiment with HepG2 [1], half-maximal inhibition (IC50) required 17 µg/mL (≈ 31.3 µM).

For the molecule `Cc1ccc(OCc2nn(CN(c3ccccc3)c3ccccc3)c(=S)n2/N=C/c2c[nH]nc2-c2ccc(F)cc2)cc1`, in the experiment with HepG2 [1], half-maximal inhibition (IC50) was put at 90 µg/mL (≈ 153 µM).

`Cc1ccc(OCc2n[nH]c(=S)n2/N=C/c2c[nH]nc2-c2ccc(Cl)cc2)cc1`: 28 µg/mL (≈ 65.9 µM) corresponded to half-maximal inhibition in the experiment on HepG2 [1] (IC50).

Turning to `Cc1ccc(OCc2n[nH]c(=S)n2/N=C/c2c[nH]nc2-c2ccc(F)cc2)cc1`, the IC50 in the experiment on HepG2 [1] amounted to 45 µg/mL (≈ 110 µM).

In the experiment with HepG2 [1], `Cc1ccc(OCc2nn(CN3CCOCC3)c(=S)n2/N=C/c2c[nH]nc2-c2ccc(Cl)cc2)cc1` had an IC50 of 54 µg/mL (≈ 103 µM).

Molecule `Fc1ccc(-c2n[nH]cc2/C=N/n2c(COc3ccccc3Cl)n[nH]c2=S)cc1` displayed an IC50 in the experiment on HepG2 [1] of 71 µg/mL (≈ 166 µM).

`Cc1ccccc1OCc1n[nH]c(=S)n1/N=C/c1c[nH]nc1-c1ccc(F)cc1` returned an IC50 in the experiment with HepG2 [1] of 48 µg/mL (≈ 118 µM).

As to `S=c1[nH]nc(COc2ccccc2)n1/N=C/c1c[nH]nc1-c1ccc(Cl)cc1`, the midpoint of inhibition in the experiment on HepG2 [1], the IC50, lay at 18 µg/mL (≈ 43.8 µM).

As to `Fc1ccc(-c2n[nH]cc2/C=N/n2c(COc3ccccc3)n[nH]c2=S)cc1`, the IC50 in the experiment on HepG2 [1] amounted to 71 µg/mL (≈ 180 µM).

With `Cc1ccccc1OCc1nn(CN2CCOCC2)c(=S)n1/N=C/c1c[nH]nc1-c1ccc(Cl)cc1`, in the experiment on HepG2 [1], the IC50 came to 54 µg/mL (≈ 103 µM).

For `CCc1n[nH]cc1/C=N/n1c(COc2ccc(C)cc2)n[nH]c1=S`, in the experiment with HepG2 [1], the IC50 is above 100 µg/mL.

`Cc1ccc(OCc2nn(CN(c3ccccc3)c3ccccc3)c(=S)n2/N=C/c2c[nH]nc2-c2ccc(Cl)cc2)cc1` had an IC50 in the experiment with HepG2 [1] of 97 µg/mL (≈ 160 µM).
